# Data: patent US11084824B2, “Pyrazolopyrimidine derivatives, preparation method thereof, and pharmaceutical composition for use in preventing or treating cancer, autoimmune disease and brain disease containing the same as an active ingredient” (Korea Research Institute of Chemical Technology, priority 2017, dated 2021)
# Counter-ions that a name gives are not always drawn.
# Legend:
# [1] = target: Bruton's tyrosine kinase (BTK) (Homo sapiens (Human), UniProt Q06187); assay: BTK enzyme inhibition assay (Cisbio HTRF kit); format: biochemical; details: 30 minutes reaction, fluorescence 665 nm/620 nm
# Chain of Bruton's tyrosine kinase (BTK) (Q06187 whole entry): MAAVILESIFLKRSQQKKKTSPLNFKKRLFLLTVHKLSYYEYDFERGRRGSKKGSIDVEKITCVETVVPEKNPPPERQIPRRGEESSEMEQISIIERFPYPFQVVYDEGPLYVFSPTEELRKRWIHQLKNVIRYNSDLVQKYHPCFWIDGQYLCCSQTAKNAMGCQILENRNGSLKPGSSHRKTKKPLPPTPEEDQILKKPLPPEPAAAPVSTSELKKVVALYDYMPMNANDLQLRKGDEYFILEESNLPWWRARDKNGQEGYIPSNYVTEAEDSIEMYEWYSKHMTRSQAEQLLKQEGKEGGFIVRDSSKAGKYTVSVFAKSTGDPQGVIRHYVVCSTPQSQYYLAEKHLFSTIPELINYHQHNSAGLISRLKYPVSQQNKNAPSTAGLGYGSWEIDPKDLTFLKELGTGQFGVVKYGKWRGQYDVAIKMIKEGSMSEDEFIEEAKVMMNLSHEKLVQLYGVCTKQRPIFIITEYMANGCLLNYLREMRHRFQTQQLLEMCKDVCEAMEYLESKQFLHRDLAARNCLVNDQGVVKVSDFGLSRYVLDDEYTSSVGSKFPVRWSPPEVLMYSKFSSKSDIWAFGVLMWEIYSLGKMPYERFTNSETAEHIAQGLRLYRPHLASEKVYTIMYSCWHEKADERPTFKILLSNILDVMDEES
# Procedure: BTK enzyme evaluation with each compound of examples of the invention was performed by using BTK enzyme inhibition diagnosis kit (Cisbio, Codolet, France). […] Then, EDTA (ethylenediaminetetraacetic acid) was added thereto in order to terminate the reaction. At this time, the EDTA solution contained curopium-containing antibody (antiphosphoresidue antibody) and straptavidin-XL665 (SA-XL665, Cisbio). After incubation for 1 hour, fluorescence was measured. The emission values of 665 nm and 620 nm excited at 337 nm were measured with Envision reader. IC50 values were determined using GraphPad prism (version 5). Herein, the curve indicates a nonlinear regression model, which was determined by logarithmic functions and reaction values.
# TMD8 cells = assay: TMD8 cell growth inhibition (WST-1, 72 hours); format: cell-based; details: Homo sapiens, TMD8 ABC type DLBCL cell line, WST-1, absorbance 450 nm
# Procedure: TDM-8 cells, the ABC (activated B-cell) type DLBCL (diffuse large B cell lymphoma) cell line sensitive to BTK signaling, were seeded in a 96-well plate at 30% confluency. Then, the compounds of the invention were treated thereto at different concentrations. 72 hours later, WST-1 reagent was added thereto. One hour later, absorbance was measured at 450 nm by using a spectramax spectrophotometer.
Structure (SMILES),IC50 [1] [nM],IC50 (TMD8 cells) [nM]
"Cc1cccc(C)c1Nc1nn(C)c2nc(Nc3ccc4c(c3)CN(CCO)CC4)ncc12 [Example 24, 2-(7-((3-((2,6-dimethylphenyl)amino)-1-methyl-1H-pyrazolo[3,4-d]pyrimidine-6-yl)amino)-3,4-dihydroisoquinoline-2(1H)-yl)ethane-1-ol]",0.3,40.1
"Cc1cccc(C)c1Nc1nn(C2CCCC2)c2nc(Nc3ccc4c(c3)CNCC4)ncc12 [Example 25, 1-cyclopentyl-N^3-(2,6-dimethylphenyl)-N^6-(1,2,3,4-tetrahydroisoquinoline-7-yl)-1H-pyrazolo[3,4-d]pyrimidine-3,6-diamine]",0.3,90.3
"Cc1cccc(C)c1Nc1nn(C2CCCCC2)c2nc(Nc3ccc4c(c3)CNCC4)ncc12 [Example 26, 1-cyclohexyl-N^3-(2,6-dimethylphenyl)-N^6 (1,2,3,4-tetrahydroisoquinoline-7-yl)-1H-pyrazolo[3,4-d]pyrimidine-3,6-diamine]",2,64.9
"Cc1ccc(NC(=O)c2cccc(C(F)(F)F)c2)cc1Nc1nn(C)c2nc(Nc3ccc4c(c3)CNCC4)ncc12 [Example 28, N-(4-methyl-3-((1-methyl-6-((1,2,3,4-tetrahydroisoquinoline-7-yl)amino)-1H-pyrazolo[3,4-d]pyrimidine-3-yl)amino)phenyl)-3-(trifluoromethyl)benzamide]",3,17.9
"Cc1ccc(NC(=O)c2cccc(C(F)(F)F)c2)c(C)c1Nc1nn(C)c2nc(Nc3ccc4c(c3)CNCC4)ncc12 [Example 29, N-(2,4-dimethyl-3-(1-methyl-6-(1,2,3,4-tetrahydroisoquinoline-7-ylamino)-1H-pyrazolo[3,4-d]pyrimidine-3-ylamino)phenyl)-3-(trifluoromethyl)benzamide]",8,117
"Cc1cccc(C)c1Nc1nn(C)c2nc(Nc3ccc4c(c3)CN(C(=O)CN(C)C)CC4)ncc12 [Example 31, 2-(dimethylamino)-1-(7-(3-(2,6-dimethylphenylamino)-1-methyl-1H-pyrazolo[3,4-d]pyrimidine-6-ylamino)-3,4-dihydroisoquinolin-2(1H)-yl)ethanone]",0.8,64.2
"CCN1CCc2ccc(Nc3ncc4c(Nc5c(C)cccc5C)nn(C)c4n3)cc2C1 [Example 32, N3-(2,6-dimethylphenyl)-N^6-(2-ethyl-1,2,3,4-tetrahydroisoquinoline-7-yl)-1-methyl-1H-pyrazolo[3,4-d]pyrimidine-3,6-diamine]",0.7,37.9
"Cc1cc(Oc2ccccc2)cc(C)c1Nc1nn(C)c2nc(Nc3ccc4c(c3)CNCC4)ncc12 [Example 33, N-(2,6-dimethyl-4-phenoxyphenyl)-1-methyl-N^6 (1,2,3,4-tetrahydroisoquinoline-7-yl)-1H-pyrazolo[3,4-d]pyrimidine-3,6-diamine]",5,669
"Cc1cc(C(=O)Nc2ccccn2)cc(C)c1Nc1nn(C)c2nc(Nc3ccc4c(c3)CNCC4)ncc12 [Example 34, 3,5-dimethyl-4-(1-methyl-6-(1,2,3,4-tetrahydroisoquinoline-7-ylamino)-1H-pyrazolo[3,4-d]pyrimidine-3-ylamino)-N-(pyridine-2-yl)benzamide]",15,178
"COc1cc(C)c(Nc2nn(C)c3nc(Nc4ccc5c(c4)CNCC5)ncc23)c(C)c1 [Example 35, N^3-(4-methoxy-2,6-dimethylphenyl)-1-methyl-N^6-(1,2,3,4-tetrahydroisoquinoline-7-yl)-1H-pyrazolo[3,4-d]pyrimidine-3,6-diamine]",3,99.3
"CCc1cccc(CC)c1Nc1nn(C)c2nc(Nc3ccc4c(c3)CNCC4)ncc12 [Example 36, N^3-(2,6-diethylphenyl)-1-methyl-N^6-(1,2,3,4-tetrahydroisoquinoline-7-yl)-1H-pyrazolo[3,4-d]pyrimidine-3,6-diamine]",44,968
"Cc1ccc(Nc2nn(C)c3nc(Nc4ccc5c(c4)CNCC5)ncc23)c(C)c1 [Example 39, N^3-(2,4-dimethylphenyl)-1-methyl-N^6 (1,2,3,4-tetrahydroisoquinoline-7-yl)-1H-pyrazolo[3,4-d]pyrimidine-3,6-diamine]",2.8,292
"Cc1cc(F)cc(C)c1Nc1nn(C)c2nc(Nc3ccc4c(c3)CNCC4)ncc12 [Example 44, N^3-(4-fluoro-2,6-dimethylphenyl)-1-methyl-N^6-(1,2,3,4-tetrahydroisoquinoline-7-yl)-1H-pyrazolo[3,4-d]pyrimidine-3,6-diamine]",1.7,69
"Cc1ccc(NC(=O)c2cccc(C(F)(F)F)c2)cc1Nc1nn(C)c2nc(Nc3ccc4c(c3)C(C)NCC4)ncc12 (stereo not shown) [Example 47, N-(4-methyl-3-(1-methyl-6-(1-methyl-1,2,3,4-tetrahydroisoquinoline-7-ylamino)-1H-pyrazolo[3,4-d]pyrimidine-3-ylamino)phenyl)-3-(trifluoromethyl)benzamide]",5.42,13.8
"Cc1cccc(Cl)c1Nc1nn(C)c2nc(Nc3ccc4c(c3)CNCC4)ncc12 [Example 48, N^3-(2-chloro-6-methylphenyl)-1-methyl-N^6 (1,2,3,4-tetrahydroisoquinoline-7-yl)-1H-pyrazolo[3,4-d]pyrimidine-3,6-diamine]",1.28,50.2
"Cc1cccc(C)c1Nc1nn(C)c2nc(Nc3ccc4c(c3)C(C(C)C)NCC4)ncc12 (stereo not shown) [Example 49, N^3-(2,6-dimethylphenyl)-N^6-(1-isopropyl-1,2,3,4-tetrahydroisoquinoline-7-yl)-1-methyl-1H-pyrazolo[3,4-d]pyrimidine-3,6-diamine]",1.61,19.6
"Cc1cccc(C)c1Nc1nn(C)c2nc(Nc3ccc4c(c3)CNC(C)(C)C4)ncc12 [Example 53, N^6-(3,3-dimethyl-1,2,3,4-tetrahydroisoquinoline-7-yl)-N^3-(2,6-dimethylphenyl)-1-methyl-1H-pyrazolo[3,4-d]pyrimidine-3,6-diamine]",0.523,31.9
"Cc1cccc(C)c1Nc1nn(C2CCC(O)CC2)c2nc(Nc3ccc4c(c3)CNCC4)ncc12 (stereo not shown) [Example 54, 4-(3-((2,6-dimethylphenyl)amino)-6-((1,2,3,4-tetrahydroisoquinoline-7-yl)amino)-1H-pyrazolo[3,4-d]pyrimidine-1-yl)cyclohexane-1-ol]",1.14,60.9
"Cc1cccc(C)c1Nc1nn(C)c2nc(Nc3ccc4c(c3)C(C)NC(C)(C)C4)ncc12 (stereo not shown) [Example 55, N3-(2,6-dimethylphenyl)-1-methyl-N 6-(1,3,3-trimethyl-1,2,3,4-tetrahydroisoquinoline-7-yl)-1H-pyrazolo[3,4-d]pyrimidine-3,6-diamine]",0.847,16.8
"Cc1cccc(C)c1Nc1nn(C)c2nc(Nc3ccc4c(c3)CNC4)ncc12 [Example 56, N^3-(2,6-dimethylphenyl)-N^6-(isoindolin-5-yl)-1-methyl-1H-pyrazolo[3,4-d]pyrimidine-3,6-diamine hydrochloride]",0.745,58.9
"Cc1cccc(C)c1Nc1nn(C)c2nc(Nc3ccc4c(c3)C(C)(C)NCC4)ncc12 [Example 58, N6-(1,1-dimethyl-1,2,3,4-tetrahydroisoquinolin-7-yl)-N 3-(2,6-dimethylphenyl)-1-methyl-1H-pyrazolo[3,4-d]pyrimidine-3,6-diamine]",1.69,8.77
"Cc1cccc(C)c1Nc1nn(C)c2nc(Nc3ccc4c(c3)C(C)(C)N(C)CC4)ncc12 [Example 59, N3-(2,6-dimethylphenyl)-1-methyl-N 6-(1,1,2-trimethyl-1,2,3,4-tetrahydroisoquinoline-7-yl)-1H-pyrazolo[3,4-d]pyrimidine-3,6-diamine]",1.84,9.27
"CC(=O)N1CCc2ccc(Nc3ncc4c(Nc5c(C)cccc5C)nn(C)c4n3)cc2C1(C)C [Example 60, 1-(7-((3-((2,6-dimethylphenyl)amino)-1-methyl-1H-pyrazolo[3,4-d]pyrimidine-6-yl)amino)-1,1-dimethyl-3,4-dihydroisoquinoline-2(1H)-yl)ethane-1-one]",4.01,159
"CC(=O)N1CCc2ccc(Nc3ncc4c(Nc5c(C)cccc5C)nn(C)c4n3)cc2C1C (stereo not shown) [Example 61, 1-(7-((3-((2,6-dimethylphenyl)amino)-1-methyl-1H-pyrazolo[3,4-d]pyrimidine-6-yl)amino)-1-methyl-3,4-dihydroisoquinoline-2(1H)-yl)ethane-1-one]",1.03,96.4
"Cc1cccc(C)c1Nc1nn(C)c2nc(Nc3ccc4c(c3)C(C)N(C)CC4)ncc12 (stereo not shown) [Example 62, N6-(1,2-dimethyl-1,2,3,4-tetrahydroisoquinoline-7-yl)-N 3-(2,6-dimethylphenyl)-1-methyl-1H-pyrazolo[3,4-d]pyrimidine-3,6-diamine]",1.21,27.9
"Cc1cccc(C)c1Nc1nn(C)c2nc(Nc3ccc4c(c3)CN(C)CC4(C)C)ncc12 [Example 63, N3-(2,6-dimethylphenyl)-1-methyl-N 6-(2,4,4-trimethyl-1,2,3,4-tetrahydroisoquinoline-7-yl)-1H-pyrazolo[3,4-d]pyrimidine-3,6-diamine]",2.13,20.9
